Here are results for 15 compounds from paper PMC3973694, “Identification of Odorant-Receptor Interactions by Global Mapping of the Human Odorome” (PLoS ONE, 2014).

For data set [1], the target named is human cannabinoid receptor CB1 (Homo sapiens, UniProt P21554). In words: GloSensor cAMP assay, CB1-transfected HEK293 cells. To be noted: for EC50: increase in cAMP production, forskolin-stimulated control cells, mean ± s.e.m., three experiments. The class given is cell-based. For orientation: Changes in cAMP serve as a functional read-out for many G protein-coupled receptors.

Data set [2] has as its target T1, OR2W1 (Homo sapiens, UniProt Q9Y3N9).
T1 construct: host or cells: Hana3A cells (HEK293T-derived), co-transfected with pCI-RTP1S and pGlo-22F
T1 sequence (Q9Y3N9 1-320): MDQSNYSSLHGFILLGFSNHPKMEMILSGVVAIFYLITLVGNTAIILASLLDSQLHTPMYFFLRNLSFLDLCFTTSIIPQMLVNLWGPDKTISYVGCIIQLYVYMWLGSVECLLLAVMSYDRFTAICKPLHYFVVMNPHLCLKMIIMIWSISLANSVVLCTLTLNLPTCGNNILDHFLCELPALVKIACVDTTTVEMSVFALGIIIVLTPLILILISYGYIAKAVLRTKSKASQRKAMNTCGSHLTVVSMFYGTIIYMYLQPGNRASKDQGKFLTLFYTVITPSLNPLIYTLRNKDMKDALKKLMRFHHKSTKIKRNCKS
In words: GloSensor cAMP assay, OR2W1-transfected Hana3A cells. The format is cell-based. The settings on record: activation of OR2W1, Hana3A cells, mean ± s.e.m., at least three experiments. The text has this: (§1) To validate predicted interactions between odorant compounds and ORs or the CB1 receptor, we used the GloSensor cAMP assay from Promega and measured the EC50 values of compounds. This luminescent assay is a sensitive method for measuring Gs and Gi- protein coupled receptor activation by real-time detection of intracellular second messenger cAMP [44]. The protocol is described in the GloSensor cAMP assays paragraph in the Supplementary Methods (S_file).
(§2) All odorants used in these assays were purchased from Sigma-Aldrich (Saint-Quentin Fallavier, France) except celery ketone, which was kindly provided by B. Schilling (Givaudan Schweiz AG, Dübendorf, Switzerland). The stock solutions of odorants (100 mM) were prepared in dimethylsulfoxide (DMSO) and were stored at -20°C. Immediately prior to the assays, the stock solutions of odorants were diluted in the CO2-independent medium (Gibco®, Life Technologies) to the appropriate concentrations. The final concentration of DMSO in wells never exceeded 1% (v/v); this concentration had no effect on GloSensor cAMP assays.
(§3) To validate predicted odorant compound-OR interactions, we used the GloSensor™ cAMP assay (Promega, Charbonnières-Les-Bains, France) to measure EC50 values of compounds. The functional assay was performed in Hana3A cells, a HEK293T-derived cell line optimized for OR expression. Hana3A cells were grown in Minimal Essential Medium (MEM; Life Technologies, Villebon-sur-Yvette, France) supplemented with 10% fetal bovine serum (PAA Laboratories, Les Mureaux, France), 100 μM Eagle’s non-essential amino acids, 2 mM glutamax (Life Technologies) and 1 μg/ml puromycin (Sigma-Aldrich, Saint-Quentin Fallavier, France). The cells were cultured at 37°C in a humidified atmosphere containing 7.3% CO2. Forty-eight hours before performing the GloSensor™ cAMP assay, cells were plated on poly-D-lysine coated 96-well plates (BD Biosciences, Le Pont de Claix, France) at a density of 3x10^4 cells per well. […] Luminescence was measured with a Victor 3V plate reader (Perkin Elmer, Courtaboeuf, France) after addition of odorant solutions (10 μl). […]

In data set [3] the target is T2, OR5P3 (Homo sapiens, UniProt Q8WZ94).
T2 construct: host or cells: Hana3A cells (HEK293T-derived), co-transfected with pCI-RTP1S and pGlo-22F
T2 sequence (Q8WZ94 1-311): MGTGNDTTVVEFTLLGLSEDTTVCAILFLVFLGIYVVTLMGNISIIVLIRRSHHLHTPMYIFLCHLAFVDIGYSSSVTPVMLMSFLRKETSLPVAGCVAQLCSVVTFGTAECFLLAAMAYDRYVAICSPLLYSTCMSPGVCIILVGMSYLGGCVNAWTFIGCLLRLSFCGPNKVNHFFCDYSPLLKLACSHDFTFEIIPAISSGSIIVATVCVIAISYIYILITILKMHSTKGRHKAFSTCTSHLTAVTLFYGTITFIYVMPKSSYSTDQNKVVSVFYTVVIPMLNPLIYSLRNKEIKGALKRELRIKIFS
In words: GloSensor cAMP assay, OR5P3-transfected Hana3A cells. The format is cell-based. The settings on record: activation of OR5P3, Hana3A cells, mean ± s.e.m., at least three experiments.
From the text: as §1, §2, §3

The subject of data set [4] is Hana3A cells. In words: Cytotoxic effects seen in the OR GloSensor assay. The class given is cell-based. To be noted: no saturation of the response could be observed. On the procedure: as §3, with “well. Twenty-four hours later, cells were transiently transfected with the OR expression plasmid (50 ng per well) together with the pCI-RTP1S plasmid and the pGlo™-22F cAMP plasmid (Promega) (10 ng and 100 ng per well, respectively) using Fugene®HD (Promega) according to the manufacturer instructions.” for “well.”

Data set [5] addresses T3, OR51E1 (Homo sapiens, UniProt Q8TCB6).
T3 construct: host or cells: Hana3A cells (HEK293T-derived), co-transfected with pCI-RTP1S and pGlo-22F
T3 sequence (Q8TCB6 1-318): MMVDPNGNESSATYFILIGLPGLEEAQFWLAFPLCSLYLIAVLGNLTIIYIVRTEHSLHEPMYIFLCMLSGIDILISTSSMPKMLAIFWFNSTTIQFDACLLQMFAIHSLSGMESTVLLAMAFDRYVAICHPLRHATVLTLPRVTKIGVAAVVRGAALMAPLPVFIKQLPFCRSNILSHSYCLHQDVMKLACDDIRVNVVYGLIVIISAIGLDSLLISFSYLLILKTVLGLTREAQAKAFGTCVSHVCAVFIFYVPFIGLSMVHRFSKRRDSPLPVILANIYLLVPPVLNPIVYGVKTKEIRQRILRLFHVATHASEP
In words: GloSensor cAMP assay, OR51E1-transfected Hana3A cells. The format is cell-based.
From the text: as §1, §2
as §3, with “well. Twenty-four hours later, cells were transiently transfected with the OR expression plasmid (50 ng per well) together with the pCI-RTP1S plasmid and the pGlo™-22F cAMP plasmid (Promega) (10 ng and 100 ng per well, respectively) using Fugene®HD (Promega) according to the manufacturer instructions. In addition, to check that induced activities are OR-dependent, mock transfections were performed by transfecting the cells with the pCI plasmid in place of the OR expression plasmid.” for “well.”

Data set [6] concerns the target T4, human PPARγ ligand binding domain (Homo sapiens, UniProt P37231).
T4 sequence (P37231 238-503 limits assumed): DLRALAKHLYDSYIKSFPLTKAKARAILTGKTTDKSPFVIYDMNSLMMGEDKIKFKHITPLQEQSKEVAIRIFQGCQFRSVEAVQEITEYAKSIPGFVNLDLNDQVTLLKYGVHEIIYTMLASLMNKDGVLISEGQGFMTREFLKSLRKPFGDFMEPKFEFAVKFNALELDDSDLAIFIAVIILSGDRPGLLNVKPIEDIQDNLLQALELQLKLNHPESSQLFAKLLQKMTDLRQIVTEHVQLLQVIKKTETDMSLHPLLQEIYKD
In words: Competitive PPARγ binding assay (LanthaScreen TR-FRET). To be noted: IC50 (inhibition of binding), displacement of fluorescent pan PPAR agonist tracer. For orientation: In TR-FRET formats the signal depends on donor and acceptor labels being close together.
Experimental: To validate predictions of odorant-PPARγ interactions, IC50 values for respective compounds were determined by competitive binding using time-resolved fluorescence resonance energy transfer (LanthaScreen, Invitrogen) on a Wallac EnVision (PerkinElmer).
To validate predictions of odorant-PPARγ interactions, IC50 values for respective compounds were determined by competitive binding using time-resolved fluorescence resonance energy transfer (LanthaScreen, Invitrogen) on a Wallac EnVision (PerkinElmer). A terbium labeled anti-GST antibody was used to label purified GST-tagged human PPARγ ligand binding domain. Energy transfer from terbium to the tracer, a fluorescent pan PPAR agonist, enabled read-out of each test compound’s ability to displace the tracer. […] An unrestrained sigmoidal (one-binding site) dose-response curve was fitted to each data set by linear regression allowing for determination of IC50 values.

Setting [7] is: absence or presence of pertussis toxin.
Setting [8] is: activation of OR51E1, Hana3A cells, mean ± s.e.m., at least three experiments, read-out: EC50.

The structures appear in SMILES notation. Several values for one entry are separate records, joined by “and”; a condition that tells them apart may be missing. Equal values may be shown once. Where a name gives a salt, the structure may show the parent alone. Read-outs that look alike come from different tables or passages of the source.

Sequence of human cannabinoid receptor CB1 (P21554 whole entry): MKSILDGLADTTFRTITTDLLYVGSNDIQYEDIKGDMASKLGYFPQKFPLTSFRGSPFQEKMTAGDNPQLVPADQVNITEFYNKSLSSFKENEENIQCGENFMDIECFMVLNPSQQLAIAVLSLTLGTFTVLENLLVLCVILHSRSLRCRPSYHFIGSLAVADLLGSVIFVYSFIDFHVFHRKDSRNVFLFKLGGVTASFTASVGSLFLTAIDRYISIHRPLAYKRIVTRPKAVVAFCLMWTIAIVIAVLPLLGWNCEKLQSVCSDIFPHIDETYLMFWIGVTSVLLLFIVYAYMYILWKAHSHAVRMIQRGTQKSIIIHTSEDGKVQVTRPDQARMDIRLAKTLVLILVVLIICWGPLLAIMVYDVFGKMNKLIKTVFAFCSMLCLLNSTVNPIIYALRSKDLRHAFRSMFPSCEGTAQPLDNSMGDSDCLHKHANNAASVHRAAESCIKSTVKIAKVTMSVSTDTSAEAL

Turning to `CCCCCCC(C)(C)c1cc(O)c2c(c1)OC(C)(C)[C@@H]1CC=C(CO)C[C@@H]21` [HU210, (6aR)-trans-3-(1,1-dimethylheptyl)-6a,7,10,10a,-tetrahydro-1-hydroxy-6,6-dimethyl-6H-dibenzo[b,d]pyran-9-methanol, reference compound], in data set [1], the “mode of action at CB1” value was “agonists”.
As usually defined, the EC50 is the concentration at which the effect is half-maximal. On to `CCCCOC(=O)CC(CC(=O)OCCCC)(OC(C)=O)C(=O)OCCCC` [Tributyl acetyl citrate], for which, in data set [1] (setting [7]), the “mode of action at CB1” value is recorded as “inverse agonists”. The same compound yielded an EC50 in data set [1] of 122 ± 25.2 µM.
`CC(C)=CCCC(C)CC=O` (stereo not drawn) [Citronellal] displayed an EC50 in data set [2] of 208 µM.
`C=C(C)C1CC=C(C)C(=O)C1` (single isomer, unassigned; (-)) [(-)-carvone, reference compound]: in data set [3], a half-maximal response (EC50) required 388 µM.
Turning to `CCCC1CC(=O)C=C(C)C1` (stereo not drawn) [celery ketone], the “concentrations with cytotoxic effects” value in data set [4] is “higher than 10^−3 M”. The EC50 in data set [3] came out at 483 µM.
For the compound `CCCCCCCCC(=O)O` [Nonanoic acid, reference compound], in data set [5], the EC50 is 197 µM.
As to `CCCCCC(=O)OCCc1ccccc1` [2-Phenylethyl hexanoate], in data set [1] (setting [7]), the “mode of action at CB1” value is listed as “inverse agonists”. Further, the 50% effective concentration (EC50) in data set [1] was 509 ± 8.3 µM.
On the same counts, the results for `CCCCCCCC(C)=O` [2-Nonanone] are “inverse agonists” and 363 ± 80.7 µM.
In turn, `CC(C)=CCC/C(C)=C/C=O` [Citral] registered an EC50 in data set [2] of 129 µM.
`CCC(=O)O` [Propionic acid] displayed a fold lower activity in data set [5] (OR51E1, compared with isovaleric acid and nonanoic acid) of 5 fold. Also, the 50% effective concentration (EC50) in data set [5] (setting [8]) was determined as 923 µM.
With `CCCCCCCCO` [1-octanol], the “concentrations with cytotoxic effects” value in data set [4] is “higher than 10^−3 M”. The midpoint of the response in data set [3], the EC50, lay at 115 µM.
Regarding `CC(C)CC(=O)O` [Isovaleric acid], the EC50 in data set [5] (setting [8]) amounted to 153 µM.
In general, IC50 refers to the concentration that gives 50% inhibition. Low readings indicate greater potency in that assay, high ones weaker potency in that assay. As for `O=C(OCCc1ccccc1)c1ccccc1O` [phenylethyl salicylate], in data set [6], the IC50 was 9.2 µM and 14.7 µM.
In data set [2], `CC(=O)OCc1ccccc1` [Benzyl acetate, reference compound] had an EC50 of 34.3 ± 1.17 µM.
As for `O=C1C[C@@H](c2ccc(O)cc2)Oc2cc(O)cc(O)c21` [naringenin], the IC50 in data set [6] worked out at 7.4 µM.
